From patent US8481525B2, “Kinase inhibitors and method of treating cancer with same” (University of Health Network, priority 2009, dated 2013)
Like-named read-outs stand apart in the source and are kept apart here.

How the values were obtained:
KDR (VEGFR2) = KDR (VEGFR2) (Homo sapiens, UniProt P35968); experiment: CEREP HTRF kinase selectivity assay; type: biochemical
Description: (§3) The inhibitory activity of selected compounds of the invention was evaluated against a panel of 45 different kinase enzymes by CEREP, France. […] The % Inhibition was determined by the formula; % Inhibition=100×(1−(experimental value−background value)/(high activity control−background value)).

FLT-3 = FLT-3 (Homo sapiens, UniProt P36888); experiment: CEREP HTRF kinase selectivity assay; type: biochemical; conditions: FLT-3, 10 uM
FLT-3, sequence (P36888 27-993): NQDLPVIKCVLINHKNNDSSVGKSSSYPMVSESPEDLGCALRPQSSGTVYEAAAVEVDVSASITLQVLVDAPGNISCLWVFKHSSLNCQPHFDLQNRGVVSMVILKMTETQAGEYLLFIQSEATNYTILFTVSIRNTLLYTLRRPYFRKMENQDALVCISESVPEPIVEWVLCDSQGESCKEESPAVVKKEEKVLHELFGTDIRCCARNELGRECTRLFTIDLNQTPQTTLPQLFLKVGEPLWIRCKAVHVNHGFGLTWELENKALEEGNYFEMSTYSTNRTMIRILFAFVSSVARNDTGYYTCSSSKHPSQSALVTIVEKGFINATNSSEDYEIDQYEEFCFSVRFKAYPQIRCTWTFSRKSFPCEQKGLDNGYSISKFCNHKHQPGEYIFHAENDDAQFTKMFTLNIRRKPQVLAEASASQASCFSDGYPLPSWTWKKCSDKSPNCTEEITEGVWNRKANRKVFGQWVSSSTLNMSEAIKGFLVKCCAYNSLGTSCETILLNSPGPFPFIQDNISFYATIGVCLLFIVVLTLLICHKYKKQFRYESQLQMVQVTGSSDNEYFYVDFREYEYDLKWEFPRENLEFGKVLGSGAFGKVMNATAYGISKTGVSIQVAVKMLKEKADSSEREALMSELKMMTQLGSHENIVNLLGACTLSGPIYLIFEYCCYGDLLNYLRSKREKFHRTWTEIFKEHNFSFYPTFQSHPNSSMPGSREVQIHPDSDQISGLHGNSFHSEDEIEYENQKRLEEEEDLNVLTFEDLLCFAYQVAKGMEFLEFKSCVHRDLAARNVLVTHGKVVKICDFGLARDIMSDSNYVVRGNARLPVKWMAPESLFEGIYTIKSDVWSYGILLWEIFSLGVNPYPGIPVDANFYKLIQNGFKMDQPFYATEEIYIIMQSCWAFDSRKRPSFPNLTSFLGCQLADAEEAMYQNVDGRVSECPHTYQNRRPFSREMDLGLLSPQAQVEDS
Description: as §3

HUV-EC-C cells = experiment: In Vitro Angiogenesis Assay (tube formation); conditions: HUV-EC-C cells on ECMatrix, 4 hr; FIGS. 1 and 2
Lyn = Lyn (Homo sapiens, UniProt P07948); experiment: CEREP HTRF kinase selectivity assay; type: biochemical
Description: (§1) The inhibitory activity of selected compounds of the invention was evaluated against a panel of 45 different kinase enzymes by CEREP, France. The assays were performed using standard HTRF assay methods as documented by CEREP against the human orthologues of Ab1 kinase, Akt1/PKBa, AMPKa, BMX kinase (Etk), Brk, CaMK2a, CaMK4, CDC2/CDK1 (cycB), CHK1, CHK2, c-Met kinase, CSK, EphB4 kinase, ERKI, ERK2 (P42mapk), FGFR2 kinase, FGFR4 kinase, FLT-1 kinase (VEGFR1), FLT-3 kinase, Fyn kinase, 1GF1R kinase, IRK (InsR), JNK 2, KDR kinase (VEGFR2), Lck kinase, Lyn kinase, MAPKAPK2, MEK1/MAP2K1, p38a kinase, p38d kinase, p38 g kinase, PDGFRb kinase, PDKI, PKA, PKCa, PKCb1, PKCb2, PKCg, Ret kinase, ROCK2, RSK2, Src kinase, Syk, and TRKA (Table 3). The % Inhibition was determined by the formula; % Inhibition=100×(1−(experimental value−background value)/(high activity control−background value)).

MEK1/MAP2K1 = MEK1/MAP2K1 (Homo sapiens, UniProt Q02750); experiment: CEREP HTRF kinase selectivity assay; type: biochemical; conditions: MEK1/MAP2K1, 10 uM
Description: as §1

EphB4 = biological target: T1, EphB4 (Homo sapiens, UniProt P54760); experiment: CEREP HTRF kinase selectivity assay; type: biochemical; conditions: EphB4, 10 uM
T1 construct: CEREP
Description: as §1

RSK2 = RSK2 (Homo sapiens, UniProt P51812); experiment: CEREP HTRF kinase selectivity assay; type: biochemical; conditions: RSK2, 10 uM
Description: as §1

PKCgamma = PKCgamma (Homo sapiens, UniProt P05129); experiment: CEREP HTRF kinase selectivity assay; type: biochemical
Description: as §1

c-Met = biological target: T2, c-Met (Homo sapiens, UniProt P08581); experiment: CEREP HTRF kinase selectivity assay; type: biochemical
T2 construct: CEREP
Description: as §1

Src = Src (Homo sapiens, UniProt P12931); experiment: CEREP HTRF kinase selectivity assay; type: biochemical
Description: as §1

Abl = biological target: T3, Abl (Homo sapiens, UniProt P00519); experiment: CEREP HTRF kinase selectivity assay; type: biochemical
T3 construct: CEREP
Description: as §1

PDGFRbeta = PDGFRbeta (Homo sapiens, UniProt P09619); experiment: CEREP HTRF kinase selectivity assay; type: biochemical
Description: as §1

ERK (P42mapk) = biological target: T4, ERK (P42mapk) (Homo sapiens, UniProt P28482); experiment: CEREP HTRF kinase selectivity assay; type: biochemical
T4 construct: CEREP
Description: as §1

PKCalpha = PKCalpha (Homo sapiens, UniProt P17252); experiment: CEREP HTRF kinase selectivity assay; type: biochemical
Description: as §1

ROCK2 = ROCK2 (Homo sapiens, UniProt O75116); experiment: CEREP HTRF kinase selectivity assay; type: biochemical; conditions: ROCK2, 10 uM
ROCK2, sequence (O75116 whole entry): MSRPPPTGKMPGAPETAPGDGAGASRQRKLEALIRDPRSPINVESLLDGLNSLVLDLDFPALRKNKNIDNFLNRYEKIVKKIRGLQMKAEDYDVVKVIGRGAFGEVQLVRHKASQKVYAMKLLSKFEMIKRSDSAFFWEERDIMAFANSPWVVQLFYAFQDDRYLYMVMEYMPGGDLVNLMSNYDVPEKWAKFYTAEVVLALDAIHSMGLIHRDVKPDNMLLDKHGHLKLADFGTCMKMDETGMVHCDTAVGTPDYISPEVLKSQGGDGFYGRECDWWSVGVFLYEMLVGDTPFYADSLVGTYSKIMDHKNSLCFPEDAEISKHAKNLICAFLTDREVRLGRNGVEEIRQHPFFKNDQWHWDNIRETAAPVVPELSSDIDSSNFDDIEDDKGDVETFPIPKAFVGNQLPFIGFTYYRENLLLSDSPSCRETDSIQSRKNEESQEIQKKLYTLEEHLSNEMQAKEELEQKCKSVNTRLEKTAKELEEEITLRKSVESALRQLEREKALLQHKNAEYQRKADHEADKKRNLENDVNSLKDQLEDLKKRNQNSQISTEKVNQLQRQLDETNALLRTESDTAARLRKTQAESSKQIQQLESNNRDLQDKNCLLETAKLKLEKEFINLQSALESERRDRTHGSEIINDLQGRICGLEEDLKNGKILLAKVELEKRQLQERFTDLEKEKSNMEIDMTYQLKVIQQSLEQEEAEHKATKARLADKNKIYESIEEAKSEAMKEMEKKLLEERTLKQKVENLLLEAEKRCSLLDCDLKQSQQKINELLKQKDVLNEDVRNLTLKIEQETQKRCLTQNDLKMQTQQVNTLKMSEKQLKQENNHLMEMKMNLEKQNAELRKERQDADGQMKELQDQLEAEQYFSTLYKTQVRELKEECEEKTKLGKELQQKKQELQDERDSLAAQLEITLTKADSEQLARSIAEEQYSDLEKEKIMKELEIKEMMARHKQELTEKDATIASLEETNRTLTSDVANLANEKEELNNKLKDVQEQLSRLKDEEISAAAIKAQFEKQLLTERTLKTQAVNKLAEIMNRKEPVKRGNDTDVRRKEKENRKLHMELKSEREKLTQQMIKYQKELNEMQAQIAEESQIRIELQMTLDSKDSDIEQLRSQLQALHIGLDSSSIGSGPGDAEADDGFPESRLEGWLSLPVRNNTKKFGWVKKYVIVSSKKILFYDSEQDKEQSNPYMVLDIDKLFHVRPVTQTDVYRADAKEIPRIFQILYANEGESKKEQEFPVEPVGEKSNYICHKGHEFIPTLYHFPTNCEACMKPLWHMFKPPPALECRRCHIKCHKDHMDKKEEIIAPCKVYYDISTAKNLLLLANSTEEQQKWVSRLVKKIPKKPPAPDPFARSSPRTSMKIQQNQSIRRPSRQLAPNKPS
Description: as §1

MAPKAPK2 = MAPKAPK2 (Homo sapiens, UniProt P49137); experiment: CEREP HTRF kinase selectivity assay; type: biochemical; conditions: MAPKAPK2, 10 uM
Description: as §1

Fyn = Fyn (Homo sapiens, UniProt P06241); experiment: CEREP HTRF kinase selectivity assay; type: biochemical
Fyn, sequence (P06241 whole entry): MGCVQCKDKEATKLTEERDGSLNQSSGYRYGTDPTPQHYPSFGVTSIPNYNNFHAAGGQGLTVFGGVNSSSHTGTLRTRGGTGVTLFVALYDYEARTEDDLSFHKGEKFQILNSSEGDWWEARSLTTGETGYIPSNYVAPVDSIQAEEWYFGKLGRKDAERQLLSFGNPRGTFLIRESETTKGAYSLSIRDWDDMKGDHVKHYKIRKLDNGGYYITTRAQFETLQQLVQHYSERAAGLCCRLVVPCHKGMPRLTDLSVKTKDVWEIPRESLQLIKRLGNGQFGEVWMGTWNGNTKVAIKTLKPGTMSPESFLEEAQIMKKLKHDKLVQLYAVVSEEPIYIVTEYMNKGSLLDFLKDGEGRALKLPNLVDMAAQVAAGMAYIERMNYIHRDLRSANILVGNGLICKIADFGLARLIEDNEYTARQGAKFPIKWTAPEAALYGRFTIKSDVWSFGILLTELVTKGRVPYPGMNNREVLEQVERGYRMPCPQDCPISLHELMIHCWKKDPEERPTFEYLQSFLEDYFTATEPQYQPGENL
Description: as §1

Brk = biological target: T5, Brk (Homo sapiens, UniProt Q13882); experiment: CEREP HTRF kinase selectivity assay; type: biochemical
T5 construct: CEREP
Description: as §1

IRK (InsR) = IRK (InsR) (Homo sapiens, UniProt P06213); experiment: CEREP HTRF kinase selectivity assay; type: biochemical
Description: as §1

PKA = PKA (Homo sapiens, UniProt P17612); experiment: CEREP HTRF kinase selectivity assay; type: biochemical
Description: as §1

Akt1/PKBalpha = biological target: T6, Akt1/PKBalpha (Homo sapiens, UniProt P31749); experiment: CEREP HTRF kinase selectivity assay; type: biochemical
T6 construct: CEREP
Description: as §1

Lck = Lck (Homo sapiens, UniProt P06239); experiment: CEREP HTRF kinase selectivity assay; type: biochemical
Description: as §1

FGFR4 = biological target: T7, FGFR4 (Homo sapiens, UniProt P22455); experiment: CEREP HTRF kinase selectivity assay; type: biochemical; conditions: FGFR4, 10 uM
T7 construct: CEREP
T7 sequence (P22455 22-802): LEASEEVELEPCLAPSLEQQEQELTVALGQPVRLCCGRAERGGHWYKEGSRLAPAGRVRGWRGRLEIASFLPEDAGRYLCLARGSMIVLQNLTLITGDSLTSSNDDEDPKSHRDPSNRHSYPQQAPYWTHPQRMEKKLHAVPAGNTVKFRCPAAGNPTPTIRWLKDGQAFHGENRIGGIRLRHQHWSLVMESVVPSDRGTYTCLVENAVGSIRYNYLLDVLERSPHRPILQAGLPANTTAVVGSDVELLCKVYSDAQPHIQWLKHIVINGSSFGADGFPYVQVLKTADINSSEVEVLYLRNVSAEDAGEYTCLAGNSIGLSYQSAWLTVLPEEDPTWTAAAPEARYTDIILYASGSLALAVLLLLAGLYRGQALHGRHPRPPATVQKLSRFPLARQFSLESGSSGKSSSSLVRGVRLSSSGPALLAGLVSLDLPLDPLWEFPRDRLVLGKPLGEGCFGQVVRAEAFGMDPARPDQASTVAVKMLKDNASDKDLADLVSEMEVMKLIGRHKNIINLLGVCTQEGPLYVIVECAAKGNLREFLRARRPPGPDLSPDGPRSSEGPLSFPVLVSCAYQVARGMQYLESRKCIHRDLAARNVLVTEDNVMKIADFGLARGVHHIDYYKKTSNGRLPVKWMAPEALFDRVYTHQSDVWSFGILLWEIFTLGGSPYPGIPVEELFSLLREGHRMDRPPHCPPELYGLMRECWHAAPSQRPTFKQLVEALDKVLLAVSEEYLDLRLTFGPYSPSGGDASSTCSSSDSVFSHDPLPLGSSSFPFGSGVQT
Description: as §1

PKCbeta 1 = PKCbeta 1 (Homo sapiens, UniProt P05771); experiment: CEREP HTRF kinase selectivity assay; type: biochemical; conditions: PKCbeta 1, 10 uM
Description: as §1

CSK = biological target: T8, CSK (Homo sapiens, UniProt P41240); experiment: CEREP HTRF kinase selectivity assay; type: biochemical
T8 construct: CEREP
Description: as §1

CDC2/CDK1 (cycB) = biological target: T9, CDC2/CDK1 (cycB) (Homo sapiens, UniProt P06493); experiment: CEREP HTRF kinase selectivity assay; type: biochemical; conditions: CDC2/CDK1, 10 uM
T9 construct: CEREP
Description: as §1

PDK1 = PDK1 (Homo sapiens, UniProt O15530); experiment: CEREP HTRF kinase selectivity assay; type: biochemical; conditions: PDK1, 10 uM
Description: as §1

CHK1 = biological target: T10, CHK1 (Homo sapiens, UniProt O14757); experiment: CEREP HTRF kinase selectivity assay; type: biochemical; conditions: CHK1, 10 uM
T10 construct: CEREP
Description: as §1

p38gamma = p38gamma (Homo sapiens, UniProt P53778); experiment: CEREP HTRF kinase selectivity assay; type: biochemical
Description: as §1

TRKA = biological target: T11, TRKA (Homo sapiens, UniProt P04629); experiment: CEREP HTRF kinase selectivity assay; type: biochemical
T11 construct: CEREP, France (contract panel)
Description: as §1

p38delta = p38delta (Homo sapiens, UniProt O15264); experiment: CEREP HTRF kinase selectivity assay; type: biochemical
Description: as §1

PKCbeta 2 = PKCbeta 2 (Homo sapiens, UniProt P05771); experiment: CEREP HTRF kinase selectivity assay; type: biochemical; conditions: PKCbeta 2, 10 uM
Description: as §1

p38alpha = p38alpha (Homo sapiens, UniProt Q16539); experiment: CEREP HTRF kinase selectivity assay; type: biochemical
Description: as §1

CaMK4 = biological target: T12, CaMK4 (Homo sapiens, UniProt Q16566); experiment: CEREP HTRF kinase selectivity assay; type: biochemical; conditions: CaMK4, 10 uM
T12 construct: CEREP
Description: as §1

ERK1 = biological target: T13, ERK1 (Homo sapiens, UniProt P27361); experiment: CEREP HTRF kinase selectivity assay; type: biochemical; conditions: ERK1, 10 uM
T13 construct: CEREP
Description: as §1

IGF1R = IGF1R (Homo sapiens, UniProt P08069); experiment: CEREP HTRF kinase selectivity assay; type: biochemical
Description: as §1

CHK2 = biological target: T14, CHK2 (Homo sapiens, UniProt O96017); experiment: CEREP HTRF kinase selectivity assay; type: biochemical; conditions: CHK2, 10 uM
T14 construct: CEREP
Description: as §1

JNK 2 = JNK 2 (Homo sapiens, UniProt P45984); experiment: CEREP HTRF kinase selectivity assay; type: biochemical; conditions: JNK 2, 10 uM
Description: as §1

Ret = Ret (Homo sapiens, UniProt P07949); experiment: CEREP HTRF kinase selectivity assay; type: biochemical
Description: as §1

BMX (Etk) = biological target: T15, BMX (Etk) (Homo sapiens, UniProt P51813); experiment: CEREP HTRF kinase selectivity assay; type: biochemical
T15 construct: CEREP
Description: as §1

AMPKalpha = experiment: CEREP HTRF kinase selectivity assay; type: biochemical, human
Description: as §1

[1] = test system: SW620 colon cancer cell line; experiment: Cell growth inhibition, Sulforhodamine B assay (SRB); type: cell-based; conditions: Homo sapiens, SW-620, 120 h, 5 days culture, SRB
How it was run: (§2)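 Growth inhibition is measured by SRB staining after 5 days of culture. Cells are fixed with cold 10% TCA, stained, washed with 1% acetic acid and read at 570 nm. Values are relative to DMSO-treated cells, with GI50 calculated for cytotoxic compounds.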

[2] = test system: HCC1954 basal breast cancer cell line; experiment: as above; type: cell-based; conditions: Homo sapiens, HCC1954, 120 h, read-out: Cell Line GI50 Range HCC-1954
How it was run: as §2

[3] = test system: human mammary epithelial primary cells (HMEC); experiment: as above; conditions: 120 h, read-out: Cell Line GI50 Range HMEC
[4] = test system: MDA-MB-468 basal breast cancer cell line; experiment: as above; type: cell-based; conditions: Homo sapiens, 120 h; MDA-MB-468 basal breast cancer cell line; 5 days culture; SRB; read-out: Cell Line GI50 Range MDA-MB-468
How it was run: as §2

[5] = test system: MCF-7 luminal breast cancer cell line; experiment: as above; type: cell-based; conditions: Homo sapiens, MCF7, 120 h; MCF-7 luminal breast cancer cell line; 5 days culture; SRB; read-out: Cell Line GI50 Range MCF-7
How it was run: as §2

[6] = test system: A549 lung cancer cell line; experiment: as above; type: cell-based; conditions: Homo sapiens, 120 h; A549 lung cancer cell line; 5 days culture; SRB; read-out: Cell Line GI50 Range A-549
How it was run: as §2

KDR (VEGFR2), sequence (P35968 20-1356): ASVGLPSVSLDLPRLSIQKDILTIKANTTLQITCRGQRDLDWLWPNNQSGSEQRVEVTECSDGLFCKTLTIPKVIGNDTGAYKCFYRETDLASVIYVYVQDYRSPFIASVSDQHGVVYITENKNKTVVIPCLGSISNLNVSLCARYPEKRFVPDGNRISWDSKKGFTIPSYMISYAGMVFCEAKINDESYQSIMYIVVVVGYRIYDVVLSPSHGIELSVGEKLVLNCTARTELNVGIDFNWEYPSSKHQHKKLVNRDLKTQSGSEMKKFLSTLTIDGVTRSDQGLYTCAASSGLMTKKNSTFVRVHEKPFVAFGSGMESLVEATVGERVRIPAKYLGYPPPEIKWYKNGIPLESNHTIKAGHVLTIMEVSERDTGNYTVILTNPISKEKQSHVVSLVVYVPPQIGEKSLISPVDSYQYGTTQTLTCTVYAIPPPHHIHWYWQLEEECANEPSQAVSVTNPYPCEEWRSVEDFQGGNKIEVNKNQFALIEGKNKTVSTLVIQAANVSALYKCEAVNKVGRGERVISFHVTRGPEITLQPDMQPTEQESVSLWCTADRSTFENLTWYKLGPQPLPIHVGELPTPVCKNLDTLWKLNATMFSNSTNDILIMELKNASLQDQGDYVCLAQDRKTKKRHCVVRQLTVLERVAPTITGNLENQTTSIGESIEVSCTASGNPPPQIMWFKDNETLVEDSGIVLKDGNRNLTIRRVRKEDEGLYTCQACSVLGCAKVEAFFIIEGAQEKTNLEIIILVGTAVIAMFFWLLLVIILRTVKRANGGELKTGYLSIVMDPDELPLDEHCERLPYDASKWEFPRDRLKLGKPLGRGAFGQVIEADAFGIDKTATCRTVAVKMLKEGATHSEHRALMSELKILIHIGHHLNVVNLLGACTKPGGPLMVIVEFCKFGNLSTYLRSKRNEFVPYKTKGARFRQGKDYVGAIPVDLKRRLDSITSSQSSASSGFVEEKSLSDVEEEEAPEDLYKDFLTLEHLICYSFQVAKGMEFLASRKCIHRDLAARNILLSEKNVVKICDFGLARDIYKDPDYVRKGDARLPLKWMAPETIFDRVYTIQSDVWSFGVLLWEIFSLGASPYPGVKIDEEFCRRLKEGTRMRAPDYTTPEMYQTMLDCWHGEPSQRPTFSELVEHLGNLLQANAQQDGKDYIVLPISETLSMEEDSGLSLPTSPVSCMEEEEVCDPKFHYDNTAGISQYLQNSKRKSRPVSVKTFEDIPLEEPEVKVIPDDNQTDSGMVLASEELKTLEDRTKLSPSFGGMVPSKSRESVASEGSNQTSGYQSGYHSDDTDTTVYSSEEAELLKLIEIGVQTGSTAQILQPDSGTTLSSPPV

O=C1Nc2ccccc2[C@@]12C[C@@H]2c1ccc2c(/C=C/c3ccncc3)n[nH]c2c1 (racemic) [Example A22, (1R*,2S*)-(E)-2-(3-(2-(pyridin-4-yl)vinyl)-1H-indazol-6-yl)spiro-[cyclo-propane-1,3′-indolin]-2′-one]
inhibition at 10 µM (KDR (VEGFR2)): 98%
inhibition at 10 µM (FLT-3): 100%
anti-angiogenic effect (tube formation, % of control tube count) (HUV-EC-C cells): anti-agiogenic effects at submicromolar concentrations
inhibition at 10 µM (Lyn): 99%
inhibition at 10 µM (MEK1/MAP2K1): 12%
inhibition at 10 µM (EphB4): 99%
inhibition at 10 µM (RSK2): 48%
inhibition at 10 µM (PKCgamma): 8%
inhibition at 10 µM (c-Met): 97%
inhibition at 10 µM (Src): 26%
inhibition at 10 µM (Abl): 97%
inhibition at 10 µM (PDGFRbeta): 88%
inhibition at 10 µM (ERK (P42mapk)): 11%
inhibition at 10 µM (PKCalpha): 7%
inhibition at 10 µM (ROCK2): 88%
inhibition at 10 µM (MAPKAPK2): 4%
inhibition at 10 µM (Fyn): 87%
inhibition at 10 µM (Brk): 41%
inhibition at 10 µM (IRK (InsR)): 21%
inhibition at 10 µM (PKA): -6%
inhibition at 10 µM (Akt1/PKBalpha): -1%
inhibition at 10 µM (Lck): 97%
inhibition at 10 µM (FGFR4): 56%
inhibition at 10 µM (PKCbeta 1): 0%
inhibition at 10 µM (CSK): 99%
inhibition at 10 µM (CDC2/CDK1 (cycB)): 93%
inhibition at 10 µM (PDK1): 69%
inhibition at 10 µM (CHK1): 37%
inhibition at 10 µM (p38gamma): -15%
inhibition at 10 µM (TRKA): 100%
inhibition at 10 µM (p38delta): -22%
inhibition at 10 µM (PKCbeta 2): 11%
inhibition at 10 µM (p38alpha): 32%
inhibition at 10 µM (CaMK4): -8%
inhibition at 10 µM (ERK1): 8%
inhibition at 10 µM (IGF1R): 22%
inhibition at 10 µM (CHK2): 4%
inhibition at 10 µM (JNK 2): 32%
inhibition at 10 µM (Ret): 99%
inhibition at 10 µM (BMX (Etk)): 71%

CN(C)Cc1ccc(/C=C/c2n[nH]c3cc([C@@H]4C[C@]45C(=O)Nc4ccccc45)ccc23)cc1 (racemic) [Example A26, (1R*,2R*)-(E)-2-(3-(4-((dimethylamino)methyl)styryl)-1H-indazol-6-yl)spiro[cyclopropane-1,3′-indolin]-2′-one 2,2,2-trifluoroacetate]
% Inhibition @ 10 uM (AMPKalpha): 69%
inhibition at 10 µM (KDR (VEGFR2)): 58%
GI50 ([1]; read-out: Cell Line GI50 Range SW-620, SW620 colon cancer cell line): 100 to 1000 nM
GI50 [2]: 1000 to 10000 nM
inhibition at 10 µM (FLT-3): 102%

COc1ccc2c(c1)[C@@]1(C[C@@H]1c1ccc3c(/C=C/c4ccc(N5CCN(C(C)C)CC5)cc4)n[nH]c3c1)C(=O)N2 (racemic) [Example A189, (1R*,2S*)-(E)-2-(3-(4-(4-isopropylpiperazin-1-yl)styryl)-1H-indazol-6-yl)-5′-methoxyspiro[cyclopropane-1,3′-indolin]-2′-one 2,2,2-trifluoroacetate]
GI50 [3]: 1000 to 10000 nM
GI50 [4]: < 100 nM
GI50 ([1]; SW620 colon cancer cell line, read-out: Cell Line GI50 Range SW-620): < 100 nM
GI50 [5]: < 100 nM
GI50 ([2]; HCC1954 basal breast cancer cell line, 5 days culture, SRB): < 100 nM
GI50 [6]: < 100 nM

COc1ccc2c(c1)[C@]1(C[C@H]1c1ccc3c(-c4ccc(N5CCN(C)CC5)nc4)n[nH]c3c1)C(=O)N2 (relative stereo) [Example A13, (1R*,2S*)-5′-Methoxy-2-(3-(6-(4-methylpiperazin-1-yl)pyridin-3-yl)-1H-indazol-6-yl)spiro[cycloropane-1,3′-indolin]-2′-one]
% Inhibition @ 10 uM (AMPKalpha): 8%
anti-angiogenic effect (tube formation, % of control tube count) (HUV-EC-C cells): anti-agiogenic effects at submicromolar concentrations
